Measured values from paper PMC6072256 (ACS Omega, 2018).

Molecular target: chymotrypsin (Bos taurus, UniProt P00766)
Test: chymotrypsin inhibition assay
Format: biochemical
Conditions: protease inhibition test; statement of the abstract

Substance: streptopeptolin [compound 1]
- inhibitory activity against chymotrypsin (in words): showed inhibitory activity
